Laboratory results: patent publication US6914045B2, “Glycopeptide antibiotics” (Wyeth Holdings Corporation, priority 2001, dated 2005)
Values after ≈ are worked out from the molar mass of the structure shown.

How the values were obtained:
[1] = system: Staphylococcus aureus-SMITH (GC 4543); test: acute lethal infection in mice; format: in vivo; conditions: acute lethal infection, female CD-1 mice, intraperitoneal challenge, intravenous 30 min. after infection, 7 day survival
Outline: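 Intraperitoneal challenge of female CD-1 mice with a bacterial dose lethal to untreated animals within 24-48 hr; single iv treatment 30 min later, 5 mice per dose level. Survival is scored at day 7 and pooled from three experiments to give the median effective dose.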

Streptococcus sp. = test: in vitro antibacterial evaluation, MIC by broth dilution; format: cell-based; conditions: broth dilution, 18 hours at 35° C.
Outline: (§1)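 Step 1: dilute antibiotic across 64-0.06 μg/mL in Muller-Hinton II […]. Step 2: inoculate at 5×10^5 CFU/mL.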

Escherichia coli = test: as above; format: cell-based; conditions: 18 hours at 35° C.
Outline: as §1

Enterococcus sp. = test: as above; format: cell-based; conditions: broth dilution, 18 hours at 35° C.
Outline: as §1

Staphylococcus sp. = test: as above; format: cell-based; conditions: broth dilution, 18 hours at 35° C.
Outline: as §1

CC(c1ccccc1)C1NC(=O)CNC(=O)C(CO)NC(=O)C(C(O)C2CNC(=N)N2C2OC(CO)C(O)C(O)C2O)NC(=O)C(C(O)C2CNC(=N)N2)NC(=O)C(Cc2ccc(OC3OC(CO)C(OC4OC5COC(Cc6ccc(Cl)cc6)OC5C(O)C4O)C(O)C3O)cc2)NC1=O (stereo not drawn) [Example 120, Cyclo[glycyl-β-methylphenylalanyl-O-[4-O-[4,6-O-(4-chlorophenethylidene)hexopyranosyl]-hexopyranosyl]tyrosyl-3-(2-iminoimidazolidin-4-yl)seryl-3-(3-hexopyranosyl-2-iminoimidazolidin-4-yl)serylseryl]]
median effective dose (ED50), Staphylococcus aureus-SMITH (GC 4543) [1]: 0.06 mg/kg | MIC Streptococcus agalactiae (GC 4564) (Streptococcus sp.; Streptococcus agalactiae (GC 4564)): <0.5 µg/mL | MIC Streptococcus pneumoniae (ATCC 6301) (Streptococcus sp.; Streptococcus pneumoniae (ATCC 6301)): <0.5 µg/mL | MIC Streptococcus pneumoniae (GC 1894) (Streptococcus sp.; Streptococcus pneumoniae (GC 1894)): <0.5 µg/mL | MIC Streptococcus pneumoniae (GC 4565) (Streptococcus sp.; Streptococcus pneumoniae (GC 4565)): <0.5 µg/mL | MIC Streptococcus pyogenes (GC 4563) (Streptococcus sp.; Streptococcus pyogenes (GC 4563)): <0.5 µg/mL | MIC Streptococcus pneumoniae (ATCC 6301) (Streptococcus sp.; strain ATCC 6301): <0.5 µg/mL | MIC Streptococcus pneumoniae (GC 1894) (Streptococcus sp.; strain GC 1894): <0.5 µg/mL | MIC Streptococcus pyogenes (GC 4563) (Streptococcus sp.; strain GC 4563): <0.5 µg/mL | MIC Streptococcus agalactiae (GC 4564) (Streptococcus sp.; strain GC 4564): <0.5 µg/mL | MIC Streptococcus pneumoniae (GC 4565) (Streptococcus sp.; strain GC 4565): <0.5 µg/mL | MIC Escherichia coli (ATCC 25922) (Escherichia coli; strain ATCC 25922): 16 µg/mL (≈ 11.2 µM) | MIC Escherichia coli (GC 4559) (Escherichia coli; strain GC 4559): 16 µg/mL (≈ 11.2 µM) | MIC Escherichia coli (GC 4560) (Escherichia coli; strain GC 4560): <0.5 µg/mL | MIC Enterococcus avium (GC 4558) (Enterococcus sp.; Enterococcus avium (GC 4558)): 1 µg/mL (≈ 0.698 µM) | MIC Enterococcus faecalis (ATCC 29212) (Enterococcus sp.; Enterococcus faecalis (ATCC 29212)): 1 µg/mL (≈ 0.698 µM) | MIC Enterococcus faecalis (GC 2242) (Enterococcus sp.; Enterococcus faecalis (GC 2242)): 1 µg/mL (≈ 0.698 µM) | MIC Enterococcus faecalis (GC 2691) (Enterococcus sp.; Enterococcus faecalis (GC 2691)): 1 µg/mL (≈ 0.698 µM) | MIC Enterococcus faecalis (GC 3059) (Enterococcus sp.; Enterococcus faecalis (GC 3059)): 1 µg/mL (≈ 0.698 µM) | MIC Enterococcus faecalis (GC 4552) (Enterococcus sp.; Enterococcus faecalis (GC 4552)): 1 µg/mL (≈ 0.698 µM) | MIC Enterococcus faecalis (GC 4553) (Enterococcus sp.; Enterococcus faecalis (GC 4553)): 1 µg/mL (≈ 0.698 µM) | MIC Enterococcus faecalis (GC 4554) (Enterococcus sp.; Enterococcus faecalis (GC 4554)): 1 µg/mL (≈ 0.698 µM) | MIC Enterococcus faecalis (GC 6189) (Enterococcus sp.; Enterococcus faecalis (GC 6189)): 1 µg/mL (≈ 0.698 µM) | MIC Enterococcus faecium (GC 2243) (Enterococcus sp.; Enterococcus faecium (GC 2243)): 1 µg/mL (≈ 0.698 µM) | MIC Enterococcus faecium (GC 4556) (Enterococcus sp.; Enterococcus faecium (GC 4556)): 1 µg/mL (≈ 0.698 µM) | MIC Enterococcus faecium (GC 4557) (Enterococcus sp.; Enterococcus faecium (GC 4557)): 1 µg/mL (≈ 0.698 µM) | MIC Enterococcus faecalis (ATCC 29212) (Enterococcus sp.; strain ATCC 29212): 1 µg/mL (≈ 0.698 µM) | MIC Enterococcus faecalis (GC 2242) (Enterococcus sp.; strain GC 2242): 1 µg/mL (≈ 0.698 µM) | MIC Enterococcus faecium (GC 2243) (Enterococcus sp.; strain GC 2243): 1 µg/mL (≈ 0.698 µM) | MIC Enterococcus faecalis (GC 2691) (Enterococcus sp.; strain GC 2691): 1 µg/mL (≈ 0.698 µM) | MIC Enterococcus faecalis (GC 3059) (Enterococcus sp.; strain GC 3059): 1 µg/mL (≈ 0.698 µM) | MIC Enterococcus faecalis (GC 4552) (Enterococcus sp.; strain GC 4552): 1 µg/mL (≈ 0.698 µM) | MIC Enterococcus faecalis (GC 4553) (Enterococcus sp.; strain GC 4553): 1 µg/mL (≈ 0.698 µM) | MIC Enterococcus faecalis (GC 4554) (Enterococcus sp.; strain GC 4554): 1 µg/mL (≈ 0.698 µM) | MIC Enterococcus faecium (GC 4556) (Enterococcus sp.; strain GC 4556): 1 µg/mL (≈ 0.698 µM) | MIC Enterococcus faecium (GC 4557) (Enterococcus sp.; strain GC 4557): 1 µg/mL (≈ 0.698 µM) | MIC Enterococcus avium (GC 4558) (Enterococcus sp.; strain GC 4558): 1 µg/mL (≈ 0.698 µM) | MIC Enterococcus faecalis (GC 6189) (Enterococcus sp.; strain GC 6189): 1 µg/mL (≈ 0.698 µM) | MIC Coagulase Negative Staphylococcus (GC 4547) (Staphylococcus sp.): 1 µg/mL (≈ 0.698 µM) | MIC Coagulase Negative Staphylococcus (GC 4548) (Staphylococcus sp.): <0.5 µg/mL | MIC Coagulase Negative Staphylococcus (GC 4549) (Staphylococcus sp.): <0.5 µg/mL | MIC Coagulase Negative Staphylococcus (GC 4551) (Staphylococcus sp.): <0.5 µg/mL | MIC Coagulase Negative Staphylococcus (GC 6257) (Staphylococcus sp.): <0.5 µg/mL | MIC Staphylococcus aureus (ATCC 29213) (Staphylococcus sp.): <0.5 µg/mL | MIC Staphylococcus aureus (GC 1131) (Staphylococcus sp.): <0.5 µg/mL | MIC Staphylococcus aureus (GC 3051) (Staphylococcus sp.): <0.5 µg/mL | MIC Staphylococcus aureus (GC 3053) (Staphylococcus sp.): 1 µg/mL (≈ 0.698 µM) | MIC Staphylococcus aureus (GC 4541) (Staphylococcus sp.): <0.5 µg/mL | MIC Staphylococcus aureus (GC 4542) (Staphylococcus sp.): <0.5 µg/mL | MIC Staphylococcus aureus (GC 4544) (Staphylococcus sp.): <0.5 µg/mL | MIC Staphylococcus aureus (GC 4545) (Staphylococcus sp.): <0.5 µg/mL | MIC Staphylococcus aureus-SMITH (GC 4543) (Staphylococcus sp.): <0.5 µg/mL | MIC Staphylococcus haemolyticus (GC 4546) (Staphylococcus sp.): <0.5 µg/mL | MIC Staphylococcus aureus (GC 1131) (Staphylococcus sp.; inoculum 5×10^5 CFU/mL, strain GC 1131): <0.5 µg/mL | MIC Staphylococcus aureus (ATCC 29213) (Staphylococcus sp.; strain ATCC 29213): <0.5 µg/mL | MIC Staphylococcus aureus (GC 3051) (Staphylococcus sp.; strain GC 3051): <0.5 µg/mL | MIC Staphylococcus aureus (GC 3053) (Staphylococcus sp.; strain GC 3053): 1 µg/mL (≈ 0.698 µM) | MIC Staphylococcus aureus (GC 4541) (Staphylococcus sp.; strain GC 4541): <0.5 µg/mL | MIC Staphylococcus aureus (GC 4542) (Staphylococcus sp.; strain GC 4542): <0.5 µg/mL | MIC Staphylococcus aureus (GC 4544) (Staphylococcus sp.; strain GC 4544): <0.5 µg/mL | MIC Staphylococcus aureus (GC 4545) (Staphylococcus sp.; strain GC 4545): <0.5 µg/mL | MIC Staphylococcus haemolyticus (GC 4546) (Staphylococcus sp.; strain GC 4546): <0.5 µg/mL | MIC Coagulase Negative Staphylococcus (GC 4547) (Staphylococcus sp.; strain GC 4547): 1 µg/mL (≈ 0.698 µM) | MIC Coagulase Negative Staphylococcus (GC 4548) (Staphylococcus sp.; strain GC 4548): <0.5 µg/mL | MIC Coagulase Negative Staphylococcus (GC 4549) (Staphylococcus sp.; strain GC 4549): <0.5 µg/mL | MIC Coagulase Negative Staphylococcus (GC 4551) (Staphylococcus sp.; strain GC 4551): <0.5 µg/mL | MIC Coagulase Negative Staphylococcus (GC 6257) (Staphylococcus sp.; strain GC 6257): <0.5 µg/mL | MIC Staphylococcus aureus-SMITH (GC 4543) (Staphylococcus sp.; strain SMITH GC 4543): <0.5 µg/mL
